Measurements as given in ChEMBL document CHEMBL1629594, “Identification of a novel trimethoprim resistance gene, dfrK, in a methicillin-resistant Staphylococcus aureus ST398 strain and its physical linkage to the tetracycline resistance gene tet(L)” (2009).
≈ marks a conversion by molar mass, not a printed value.

Test system: Escherichia coli
Experiment: Antibacterial activity against Escherichia coli JM109 expressing Bgl2

Row | SMILES | MIC [µg/mL]
1 | COc1cc(Cc2cnc(N)nc2N)cc(OC)c1OC [TRIMETHOPRIM] | ≥ 512

Test system: Staphylococcus aureus
Experiment: Antibacterial activity against methicillin-resistant Staphylococcus aureus ST398
Format: functional

Row | SMILES | MIC [µg/mL]
2 | CN(C)[C@@H]1C(O)=C(C(N)=O)C(=O)[C@@]2(O)C(O)=C3C(=O)c4c(O)cccc4[C@@](C)(O)[C@H]3C[C@@H]12 [TETRACYCLINE] | 64 (≈ 144 µM)
3 | CC1(C)S[C@@H]2[C@H](NC(=O)[C@H](N)c3ccccc3)C(=O)N2[C@H]1C(=O)O [AMPICILLIN] | 8 (≈ 22.9 µM)
4 | COc1cc(Cc2cnc(N)nc2N)cc(OC)c1OC [TRIMETHOPRIM] | > 256
5 | CC1(C)S[C@@H]2[C@H](NC(=O)Cc3ccccc3)C(=O)N2[C@H]1C(=O)O [PENICILLIN G] | 8 (≈ 23.9 µM)
6 | Cc1onc(-c2ccccc2)c1C(=O)N[C@@H]1C(=O)N2[C@@H]1SC(C)(C)[C@@H]2C(=O)O [OXACILLIN] | 8 (≈ 19.9 µM)
